Converted amounts (≈) assume the structure as drawn. Where two headings read alike, the source gives them in different places.
Columns and labels:
Escherichia coli O157:H7 = assay: MIC with/without PMBN, Escherichia coli O157:H7; assay type: cell-based
Method in brief: (§1)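 Rhodanines and control antibiotics are tested for MIC against Gram-negative bacteria while a sub-inhibitory level of colistin or PMBN is present. A strain of E. coli lacking the AcrAB efflux pump (SM1411ΔacrAB) serves as an additional test organism.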

Escherichia coli Δ acrAB = assay: MIC against E. coli 1411 and AcrAB efflux pump deficient E. coli SM1411Δ acrAB; assay type: cell-based
Method in brief: as §1

Mycobacterium smegmatis = assay: Broth microdilution MIC/MBC, Mycobacterium smegmatis; assay type: cell-based; conditions: Mycolicibacterium smegmatis, ATCC14468, M. Smegmatis ATCC 14468
[1] = tested on: vancomycin resistant enterococci (VRE) E. faecium; assay: Broth microdilution MIC/MBC, VRE E. faecium; assay type: cell-based; conditions: for MIC: read-out: MIC
Bacillus Strains = assay: Broth microdilution MIC50/MIC90 and MIC range, Bacillus strains panel; assay type: cell-based, Bacillus spp.; conditions: 10 Bacillus strains
Description: The broth microdilution technique was used, followed by subculturing on agar plates that were rhodanine—free. […] The MICs reported represent the lowest concentration of each compound necessary to inhibit bacterial growth and the MBCs represent the lowest concentration required to reduce the initial bacterial inoculum by ≥ 99.9%.

B. cereus = assay: Broth microdilution MIC/MBC, B. cereus; assay type: cell-based; conditions: Bacillus cereus; for MBC: read-out: MBC; for MIC: read-out: MIC
Description: The broth microdilution technique was used, followed by subculturing on agar plates that were rhodanine—free.

P. aeruginosa = assay: Broth microdilution MIC, P. aeruginosa; assay type: cell-based; conditions: Pseudomonas aeruginosa
Clostridium difficile = assay: MIC against Clostridium difficile, anaerobic broth dilution; assay type: cell-based; conditions: Clostridioides difficile
Method in brief: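 Clinical C. difficile isolates grown anaerobically 48 h at 37 °C, suspended to 0.5 McFarland and diluted 1:300 in pre-reduced supplemented Brain Heart Infusion broth. Compounds serially diluted; plates incubated anaerobically at 37 °C for 48 h. MIC = lowest concentration with no visible growth.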

[2] = tested on: vancomycin resistant enterococci (VRE) E. faecalis; assay: Broth microdilution MIC/MBC, VRE E. faecalis; assay type: cell-based; conditions: for MIC: read-out: MIC
Salmonella Typhimurium = assay: MIC with/without PMBN, Salmonella Typhimurium; assay type: cell-based
Method in brief: as §1

[3] = tested on: Vancomycin Resistant Staphylococcus aureus (VRSA); assay: Broth microdilution MIC/MBC, VRSA; assay type: cell-based; conditions: for MBC / MIC: VRSA
[4] = E. faecium HM 968 Strain ERV102
[5] = E. faecium NR31914 Strain E0120
[6] = E. faecium Patient #1–1 NR-31903
[7] = NRS201, B. cereus NRS 201 NR-2488
[8] = E. faecalis NR31972 Strain SF 28073

SMILES: O=C(O)[C@H](Cc1ccccc1)N1C(=O)/C(=C/c2cccc(OC/C=C/c3ccc(Cl)c(Cl)c3)c2)SC1=S [Rh 6]
- MIC (Escherichia coli O157:H7; Escherichia coli O157:H7 ATCC 35150, PMBN (+) 4 μg/mL, read-out: MIC): 8 µM (≈ 4.56 µg/mL)
- MIC (Escherichia coli O157:H7; Escherichia coli O157:H7 ATCC 700728, PMBN (+) 4 μg/mL, read-out: MIC): >64 µM
- MIC (Escherichia coli O157:H7; Escherichia coli, ATCC35150): > 256 µM
- MIC (Escherichia coli O157:H7; Escherichia coli, ATCC700728): > 128 µM
- MIC (Escherichia coli Δ acrAB; E.coli 1411): > 64 µM
- MIC (Escherichia coli Δ acrAB; E.coli 1411 SM (Δ acrAB, AcrAB efflux pump deficient)): > 64 µM
- MBC (Mycobacterium smegmatis; read-out: MBC): 32 µM (≈ 18.3 µg/mL)
- MIC (Mycobacterium smegmatis; read-out: MIC): 16 µM (≈ 9.13 µg/mL)
- MBC ([1]; E. faecium E417 HM-965): > 64 µM
- MIC ([1]; E. faecium E417 HM-965): 4 µM (≈ 2.28 µg/mL)
- MBC ([1]; E. faecium E1071 NR-28978): > 64 µM
- MIC ([1]; E. faecium E1071 NR-28978): 8 µM (≈ 4.56 µg/mL)
- MBC [1, 4]: > 64 µM
- MIC [1, 4]: 8 µM (≈ 4.56 µg/mL)
- MBC [1, 5]: 64 µM (≈ 36.5 µg/mL)
- MIC [1, 5]: 8 µM (≈ 4.56 µg/mL)
- MBC [1, 6]: > 64 µM
- MIC [1, 6]: 4 µM (≈ 2.28 µg/mL)
- MIC50 (Bacillus Strains): 4 µM (≈ 2.28 µg/mL)
- MIC90 (Bacillus Strains): 4 µM (≈ 2.28 µg/mL)
- MBC (B. cereus; B. cereus BAG1O-2 NR-28582): 4 µM (≈ 2.28 µg/mL)
- MIC (B. cereus; B. cereus BAG1O-2 NR-28582): 4 µM (≈ 2.28 µg/mL)
- MBC (B. cereus; B. cereus BAG1X1-1 NR-28575): 4 µM (≈ 2.28 µg/mL)
- MIC (B. cereus; B. cereus BAG1X1-1 NR-28575): 4 µM (≈ 2.28 µg/mL)
- MBC (B. cereus; B. cereus BAG1X2-1 NR-28578): 4 µM (≈ 2.28 µg/mL)
- MIC (B. cereus; B. cereus BAG1X2-1 NR-28578): 4 µM (≈ 2.28 µg/mL)
- MBC (B. cereus; B. cereus G9241 NR-9564): 4 µM (≈ 2.28 µg/mL)
- MIC (B. cereus; B. cereus G9241 NR-9564): 4 µM (≈ 2.28 µg/mL)
- MBC (B. cereus; B. cereus VD014 NR-22141): 4 µM (≈ 2.28 µg/mL)
- MIC (B. cereus; B. cereus VD014 NR-22141): 4 µM (≈ 2.28 µg/mL)
- MBC (B. cereus; B. cereus VD115 NR-22148): 4 µM (≈ 2.28 µg/mL)
- MIC (B. cereus; B. cereus VD115 NR-22148): 4 µM (≈ 2.28 µg/mL)
- MBC (B. cereus; B. cereus VD148 NR-22150): 4 µM (≈ 2.28 µg/mL)
- MIC (B. cereus; B. cereus VD148 NR-22150): 4 µM (≈ 2.28 µg/mL)
- MBC (B. cereus; [7]): 4 µM (≈ 2.28 µg/mL)
- MIC (B. cereus; [7]): 4 µM (≈ 2.28 µg/mL)
- MIC (P. aeruginosa; ATCC9721): > 128 µM
- MIC (P. aeruginosa; ATCC15442): > 128 µM
- MIC (Clostridium difficile; C. difficile HM-88): 4 µM (≈ 2.28 µg/mL)
- MIC (Clostridium difficile; C. difficile HM-745): 4 µM (≈ 2.28 µg/mL)
- MIC (Clostridium difficile; C. difficile HM-746): 2 µM (≈ 1.14 µg/mL)
- MIC (Clostridium difficile; C. difficile Isolate-1 NR-13427): 4 µM (≈ 2.28 µg/mL)
- MIC (Clostridium difficile; C. difficile Toxigenic Strain P8 NR-32888): 8 µM (≈ 4.56 µg/mL)
- MBC ([2]; E. faecalis ERV103 HM-934): 16 µM (≈ 9.13 µg/mL)
- MIC ([2]; E. faecalis ERV103 HM-934): 8 µM (≈ 4.56 µg/mL)
- MBC [2, 8]: 16 µM (≈ 9.13 µg/mL)
- MIC [2, 8]: 8 µM (≈ 4.56 µg/mL)
- MBC ([2]; E. faecalis R712 HM-335): 8 µM (≈ 4.56 µg/mL)
- MIC ([2]; E. faecalis R712 HM-335): 4 µM (≈ 2.28 µg/mL)
- MBC ([2]; E. faecalis S613 HM-334): 16 µM (≈ 9.13 µg/mL)
- MIC ([2]; E. faecalis S613 HM-334): 8 µM (≈ 4.56 µg/mL)
- MBC ([2]; E. faecalis TX0104 HM-201): 8 µM (≈ 4.56 µg/mL)
- MIC ([2]; E. faecalis TX0104 HM-201): 8 µM (≈ 4.56 µg/mL)
- MIC (Salmonella Typhimurium; Salmonella Typhimurium ATCC 700720, PMBN (+) 4 μg/mL, read-out: MIC): >128 µM
- MIC (Salmonella Typhimurium; Salmonella enterica, ATCC 700720 / TYPHIMURIUM): > 128 µM
- MIC50 ([3]; 15 VRSA strains, read-out: MIC 50): 4 µM (≈ 2.28 µg/mL)
- MIC90 ([3]; 15 VRSA strains, read-out: MIC 90): 8 µM (≈ 4.56 µg/mL)
- MBC ([3]; VRSA 1, read-out: MBC): > 64 µM
- MIC ([3]; VRSA 1, read-out: MIC): 8 µM (≈ 4.56 µg/mL)
- MBC ([3]; VRSA 2, read-out: MBC): 8 µM (≈ 4.56 µg/mL)
- MIC ([3]; VRSA 2, read-out: MIC): 8 µM (≈ 4.56 µg/mL)
- MBC ([3]; VRSA 3a, read-out: MBC): 8 µM (≈ 4.56 µg/mL)
- MIC ([3]; VRSA 3a, read-out: MIC): 8 µM (≈ 4.56 µg/mL)
- MBC ([3]; VRSA 3b, read-out: MBC): 16 µM (≈ 9.13 µg/mL)
- MIC ([3]; VRSA 3b, read-out: MIC): 8 µM (≈ 4.56 µg/mL)
- MBC ([3]; VRSA 4, read-out: MBC): 8 µM (≈ 4.56 µg/mL)
- MIC ([3]; VRSA 4, read-out: MIC): 4 µM (≈ 2.28 µg/mL)
- MBC ([3]; VRSA 5, read-out: MBC): 16 µM (≈ 9.13 µg/mL)
- MIC ([3]; VRSA 5, read-out: MIC): 4 µM (≈ 2.28 µg/mL)
- MBC ([3]; VRSA 6, read-out: MBC): 32 µM (≈ 18.3 µg/mL)
- MIC ([3]; VRSA 6, read-out: MIC): 4 µM (≈ 2.28 µg/mL)
- MBC ([3]; VRSA 7, read-out: MBC): 8 µM (≈ 4.56 µg/mL)
- MIC ([3]; VRSA 7, read-out: MIC): 8 µM (≈ 4.56 µg/mL)
- MBC ([3]; VRSA 8, read-out: MBC): 16 µM (≈ 9.13 µg/mL)
- MIC ([3]; VRSA 8, read-out: MIC): 4 µM (≈ 2.28 µg/mL)
- MBC ([3]; VRSA 9, read-out: MBC): 16 µM (≈ 9.13 µg/mL)
- MIC ([3]; VRSA 9, read-out: MIC): 8 µM (≈ 4.56 µg/mL)
- MBC ([3]; VRSA 10, read-out: MBC): 16 µM (≈ 9.13 µg/mL)
- MIC ([3]; VRSA 10, read-out: MIC): 4 µM (≈ 2.28 µg/mL)
- MBC ([3]; VRSA 11a, read-out: MBC): 64 µM (≈ 36.5 µg/mL)
- MIC ([3]; VRSA 11a, read-out: MIC): 4 µM (≈ 2.28 µg/mL)
- MBC ([3]; VRSA 11b, read-out: MBC): 32 µM (≈ 18.3 µg/mL)
- MIC ([3]; VRSA 11b, read-out: MIC): 4 µM (≈ 2.28 µg/mL)
- MBC ([3]; VRSA 12, read-out: MBC): 32 µM (≈ 18.3 µg/mL)
- MIC ([3]; VRSA 12, read-out: MIC): 4 µM (≈ 2.28 µg/mL)
- MBC ([3]; VRSA 13, read-out: MBC): 32 µM (≈ 18.3 µg/mL)
- MIC ([3]; VRSA 13, read-out: MIC): 8 µM (≈ 4.56 µg/mL)
